Measurements reported in PubChem BioAssay AID2060890 (Molecular Pharmacology Branch, DTP, NCI, 2025).

Test system: LG0703-F948-PDC complex spheroid viability
Experiment: Anticancer human tumor LG0703-F948-PDC patient-derived lung adenocarcinoma cell line growth inhibition [RAS]
Conditions: for IC50: curve of first compound; for viability, T/C: stronger effect = lower value
Outline: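 Multi-cell-type spheroids: tumor cells plus HUVEC endothelial cells and mesenchymal stem cells. RAS-pathway inhibitors were combined with targeted agents, each dosed in half-log steps down from clinical Cmax, or from 10 microM when Cmax was unknown.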

[1] = second compound 0.00316 µM, first compound 0.0316 µM
[2] = second compound 0.00316 µM, first compound 0.1 µM
[3] = second compound 0.01 µM, first compound 0.0316 µM
[4] = second compound 0.01 µM, first compound 0.1 µM
[5] = second compound 0.0316 µM, first compound 0.0316 µM
[6] = second compound 0.0316 µM, first compound 0.1 µM
[7] = second compound 0.1 µM, first compound 0.0316 µM
[8] = second compound 0.1 µM, first compound 0.1 µM
[9] = second compound 0.316 µM, first compound 0.0316 µM
[10] = second compound 0.316 µM, first compound 0.1 µM
[11] = second compound 1 µM, first compound 0.0316 µM
[12] = second compound 1 µM, first compound 0.1 µM
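Further: spheroids exposed to agents for 7 days.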
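Wherever viability, T/C is given: 100% = DMSO vehicle wells.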

CC(C)n1nc(-c2ccc3oc(N)nc3c2)c2c(N)ncnc21 + C=CC(=O)N1CCN(c2nc(OCC3CCCN3C)nc3c(F)c(-c4nc(N)cc(C)c4C(F)(F)F)c(Cl)cc23)C(C)C1
IC50 (second compound 0.00316 µM): 0.00263 µM
IC50 (second compound 0.01 µM): 0.00404 µM
IC50 (second compound 0.0316 µM): 0.00357 µM
IC50 (second compound 0.1 µM): 0.00398 µM
IC50 (second compound 0.316 µM): 0.00422 µM
IC50 (second compound 1 µM): 0.00458 µM
viability, T/C (second compound 0.00316 µM, first compound 0.000316 µM): 90.6%
viability, T/C (second compound 0.00316 µM, first compound 0.001 µM): 65.3%
viability, T/C (second compound 0.00316 µM, first compound 0.00316 µM): 49.1%
viability, T/C (second compound 0.00316 µM, first compound 0.01 µM): 29.7%
viability, T/C [1]: 12.6%
viability, T/C [2]: 7.5%
viability, T/C (second compound 0.01 µM, first compound 0.000316 µM): 92.8%
viability, T/C (second compound 0.01 µM, first compound 0.001 µM): 79.9%
viability, T/C (second compound 0.01 µM, first compound 0.00316 µM): 55.6%
viability, T/C (second compound 0.01 µM, first compound 0.01 µM): 29.7%
viability, T/C [3]: 12.3%
viability, T/C [4]: 7.9%
viability, T/C (second compound 0.0316 µM, first compound 0.000316 µM): 94.8%
viability, T/C (second compound 0.0316 µM, first compound 0.001 µM): 76%
viability, T/C (second compound 0.0316 µM, first compound 0.00316 µM): 52.3%
viability, T/C (second compound 0.0316 µM, first compound 0.01 µM): 30.9%
viability, T/C [5]: 12.8%
viability, T/C [6]: 6.67%
viability, T/C (second compound 0.1 µM, first compound 0.000316 µM): 106%
viability, T/C (second compound 0.1 µM, first compound 0.001 µM): 78.3%
viability, T/C (second compound 0.1 µM, first compound 0.00316 µM): 57.6%
viability, T/C (second compound 0.1 µM, first compound 0.01 µM): 31.4%
viability, T/C [7]: 14.3%
viability, T/C [8]: 8.14%
viability, T/C (second compound 0.316 µM, first compound 0.000316 µM): 103%
viability, T/C (second compound 0.316 µM, first compound 0.001 µM): 79.3%
viability, T/C (second compound 0.316 µM, first compound 0.00316 µM): 59%
viability, T/C (second compound 0.316 µM, first compound 0.01 µM): 31.5%
viability, T/C [9]: 12.9%
viability, T/C [10]: 7.55%
viability, T/C (second compound 1 µM, first compound 0.000316 µM): 114%
viability, T/C (second compound 1 µM, first compound 0.001 µM): 84.8%
viability, T/C (second compound 1 µM, first compound 0.00316 µM): 59.2%
viability, T/C (second compound 1 µM, first compound 0.01 µM): 34.3%
viability, T/C [11]: 13.9%
viability, T/C [12]: 6.36%

CC1(O)CCCC1n1c(=O)c(C(F)F)cc2cnc(NC3CCN(S(C)(=O)=O)CC3)nc21 (centres undefined) + C=CC(=O)N1CCN(c2nc(OCC3CCCN3C)nc3c(F)c(-c4nc(N)cc(C)c4C(F)(F)F)c(Cl)cc23)C(C)C1
IC50 (second compound 0.00316 µM): 4.29 µM
IC50 (second compound 0.01 µM): 4.16 µM
IC50 (second compound 0.0316 µM): 4.67 µM
IC50 (second compound 0.1 µM): 4.25 µM
IC50 (second compound 0.316 µM): 4.34 µM
IC50 (second compound 1 µM): 4.13 µM
viability, T/C [1]: 96.7%
viability, T/C [2]: 91.2%
viability, T/C (second compound 0.00316 µM, first compound 0.316 µM): 86.1%
viability, T/C (second compound 0.00316 µM, first compound 1 µM): 76.8%
viability, T/C (second compound 0.00316 µM, first compound 3.16 µM): 66.9%
viability, T/C (second compound 0.00316 µM, first compound 10 µM): 14.1%
viability, T/C [3]: 103%
viability, T/C [4]: 103%
viability, T/C (second compound 0.01 µM, first compound 0.316 µM): 90.1%
viability, T/C (second compound 0.01 µM, first compound 1 µM): 72.9%
viability, T/C (second compound 0.01 µM, first compound 3.16 µM): 69%
viability, T/C (second compound 0.01 µM, first compound 10 µM): 15.8%
viability, T/C [5]: 97.8%
viability, T/C [6]: 104%
viability, T/C (second compound 0.0316 µM, first compound 0.316 µM): 85.9%
viability, T/C (second compound 0.0316 µM, first compound 1 µM): 76.7%
viability, T/C (second compound 0.0316 µM, first compound 3.16 µM): 75.5%
viability, T/C (second compound 0.0316 µM, first compound 10 µM): 14.7%
viability, T/C [7]: 107%
viability, T/C [8]: 104%
viability, T/C (second compound 0.1 µM, first compound 0.316 µM): 88%
viability, T/C (second compound 0.1 µM, first compound 1 µM): 75.2%
viability, T/C (second compound 0.1 µM, first compound 3.16 µM): 73.9%
viability, T/C (second compound 0.1 µM, first compound 10 µM): 10.9%
viability, T/C [9]: 106%
viability, T/C [10]: 89.5%
viability, T/C (second compound 0.316 µM, first compound 0.316 µM): 94.9%
viability, T/C (second compound 0.316 µM, first compound 1 µM): 75.7%
viability, T/C (second compound 0.316 µM, first compound 3.16 µM): 72%
viability, T/C (second compound 0.316 µM, first compound 10 µM): 9.28%
viability, T/C [11]: 115%
viability, T/C [12]: 105%
viability, T/C (second compound 1 µM, first compound 0.316 µM): 92.5%
viability, T/C (second compound 1 µM, first compound 1 µM): 76.4%
viability, T/C (second compound 1 µM, first compound 3.16 µM): 74.9%
viability, T/C (second compound 1 µM, first compound 10 µM): 6.44%
